Common to all, as to experiment: DTP human tumour cell line panel, 48 h
In experiment [1] the test system is SK-MEL-5.
Experiment [2] relates to CAKI-1.
Experiment [3] deals with SNB-19.
For experiment [4], the system named is NCI/ADR-RES.
The subject of experiment [5] is KM12.
Experiment [6] has as its system OVCAR-3.
The subject of experiment [7] is SW-620.
Experiment [8] concerns Hs-578T.
Experiment [9] relates to RPMI-8226.
Experiment [10] concerns SF-268.
The subject of experiment [11] is NCI-H522.
For experiment [12], the system named is IGROV-1.
Experiment [13] has as its system HCT-15.
Experiment [14] deals with SNB-75.
Experiment [15] deals with DU-145.
For experiment [16], the system named is OVCAR-5.
Experiment [17] concerns LOX IMVI.
Experiment [18] relates to HOP-92.
Experiment [19] deals with K562.
The test system of experiment [20] is SK-OV-3.

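Interpolation was linear, between the two tested concentrations surrounding the appropriate level; five concentrations were tested over 48 hours in 96-well plates. Here, GI50 denotes the concentration required for 50% inhibition of growth.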 Active and inactive are the calls of the source. Cut-off read from the data, not from the text of the source: active = GI50 up to about 1.1 µM and inactive = higher.

Regarding `[N-]=[N+]=C(C(=O)OCC#CCOC(=O)C(=[N+]=[N-])S(=O)(=O)c1ccccc1)S(=O)(=O)c1ccccc1`, the GI50 in experiment [1], in experiment [2], in experiment [3], in [4], in experiment [5] and in experiment [6] was > 10 µM (inactive) each time. The GI50 in [7], in [8], in [9], in experiment [10], in [11] and in experiment [12] was > 10 µM (inactive) throughout. In addition, the GI50 in experiment [13] was more than 10 µM; in experiment [14] it was > 10 µM (inactive); in experiment [15], > 10 µM (inactive); in experiment [16] it was > 10 µM (inactive); in [17], > 10 µM (inactive); in experiment [18] it was > 10 µM (inactive). The GI50 in [19] and in [20] was > 10 µM (inactive) each time.
Regarding `ONCCCn1cnc2c(NC3CC3)ncnc21`, the GI50 in experiment [1], in experiment [2], in experiment [3], in [4], in experiment [5] and in [6] was > 100 µM (inactive) throughout. Moreover, the GI50 in [7], in experiment [8], in [9], in experiment [10], in experiment [11] and in experiment [12] was > 100 µM (inactive) each time. Besides, the GI50 was more than 100 µM in experiment [13]; > 100 µM (inactive) in experiment [14]; > 100 µM (inactive) in experiment [15]; > 100 µM (inactive) in [16]; > 100 µM (inactive) in [17]; > 100 µM (inactive) in [18]. The GI50 in experiment [19] and in experiment [20] was > 100 µM (inactive) throughout.
As for `Cc1ccc2nc(-c3ccc(NC(=O)c4ccc(N)cc4)c(S(=O)(=O)O)c3)sc2c1`, the GI50 in [1], in [2], in experiment [3], in experiment [4], in experiment [5] and in experiment [6] was > 100 µM (inactive) in each case. The GI50 in experiment [7], in experiment [8], in [9], in experiment [10], in [11] and in [12] was > 100 µM (inactive) throughout. The GI50 in experiment [13] was more than 100 µM; in [14], > 100 µM (inactive); in experiment [15], > 100 µM (inactive); in experiment [16], > 100 µM (inactive); in [17], > 100 µM (inactive); in [18], > 100 µM (inactive). The GI50 in [19] and in experiment [20] was > 100 µM (inactive) in each case.
`CCCCc1c2c(c(C)c3c1C(=O)OC3)Oc1ccccc1O2`: the concentration for 50% growth inhibition (GI50) was 0.478 µM (active) in experiment [1]; 5.74 µM (inactive) in [2]; 3.95 µM (inactive) in [3]; 0.382 µM (active) in experiment [4]; 0.815 µM (active) in experiment [5]; 0.274 µM (active) in experiment [6]. The GI50 in [7] is 1.02 µM (active); in experiment [8], 0.628 µM (active); in experiment [9] it was 1.25 µM (inactive); in experiment [10] it was 1.64 µM (inactive); in experiment [11] it was 0.217 µM (active); in experiment [12] it was 0.608 µM (active). In addition, the GI50 in experiment [13] is 0.708 µM; in [14], 0.562 µM (active); in experiment [15] it was 2.51 µM (inactive); in experiment [16] it was > 27.5 µM (inactive); in [17], 2.25 µM (inactive); in experiment [18], 10.2 µM (inactive). Also, the GI50 is 0.379 µM (active) in experiment [19] and 1.57 µM (inactive) in experiment [20].

As a reminder, the GI50 is the concentration that inhibits growth by half.

The record behind these values is ChEMBL document CHEMBL1201862, “PubChem BioAssay data set” (2004).
